Results on 4 compounds are retold here after article PMC8861431, “Tissue Pharmacokinetic Properties and Bystander Potential of Hypoxia-Activated Prodrug CP-506 by Agent-Based Modelling” (Frontiers in Pharmacology, 2022).

Data set [1] is described as follows: Cellular uptake studies / cellular PK model. Format: in vitro ADME, human. The settings on record: human, POR-overexpressing HCT-116 (POR-R) cell monolayer; Table S3, cellular PK model (extracellular instability); read-out: T1/2: time required to reduce the concentration to half its initial value (converted). The protocol: (§1) The intracellular/extracellular partitioning ratio for CP-506 and its major metabolites was determined in monolayer cultures of POR-overexpressing HCT-116 cells, as described previously ([Hong et al., 2018b]). Briefly, cells (5 x 10^5 per well) were seeded with 350 µl medium into 24-well plates and left to attach for 2 h in a humidified 37°C incubator. Stock solutions of CP-506 were diluted and added with 50 µl medium to the well volume to achieve a final concentration of 100 µM. Samples were harvested at various time points for up to 3 h thereafter. Aerobic experiments were performed under standard tissue culture conditions (21% O2), and the anoxic experiments in parallel in a H2/Pd-catalyst-scrubbed anaerobic chamber as described. The well volume was spiked with [^3H]-mannitol immediately before sample harvest and treated with two-volumes of ice-cold acetonitrile containing 2 µM of the deuterated (D8) internal standards for each CP-506, CP-506H and CP-506M. The cell monolayer was then treated with 100 µl of this crashing solution. Samples were stored at −80°C until LC-MS/MS analysis. The cellular exclusion of [^3H]-mannitol was used to account for the contribution of the extracellular medium toward determinations of the intracellular concentration, as described previously ([Foehrenbacher et al., 2013a]).
(§2) An agent-based model (ABM) employing a one-dimensional approximation for monolayers was used to develop a cellular PK model, as described in further detail elsewhere ([Hong et al., 2018b]; [Mao et al., 2018]). The mathematical framework assumes that solute concentrations in the medium are dependent only on the depth (on the z coordinate) and not the lateral position (x,y) so that all cells are exposed to the same concentration of nutrients and drugs within the monolayer culture. Moreover, all cells have the same rate of metabolism and volume growth at any instance with variability allowed in cell volume, rate of cell division and cell death. Monolayer ABM simulations were performed on a desktop Windows PC (Intel core I7 processor) from a Qt (Qt Company, https://www.qt.io/) graphical user interface passing parameters to a DLL built with Fortran95. The monolayer ABM uses a finite difference method to solve reaction-diffusion equations for each compound (N) in the medium and cells. Parameters for the cellular uptake and metabolism were fitted to the concentration-time profiles of CP-506 and its metabolites in monolayer cultures of POR-R cells using a linear (first order) cell transport and metabolism model. Terms for the extracellular instability of CP-506 and its metabolites were set at their respective values in media stability studies, and media diffusion coefficients were estimated from the support membrane diffusion coefficients described below. Experimental data describing the kinetics of CP-506 uptake under aerobic conditions was fitted by adjusting the permeability coefficients kin and kout for each compound. These values were fixed for anoxic experiments to allow for parameter estimation of the rate of intracellular CP-506 metabolism (kmet0) as well as the intracellular/extracellular partitioning ratio (kin and kout) and metabolic instability (kmet0) for its cytotoxic metabolites.

Data set [2] concerns POR-overexpressing HCT-116 cells (POR-R) monolayer. The data set is described as follows: Cellular uptake studies / cellular PK model. The data set is classed as in vitro ADME, human. The settings on record: for k in: rate constant for transfer from the extracellular to intracellular volume / k out: rate constant for transfer from the intracellular to extracellular volume: Table 1, ABM parameter, estimated from partitioning in monolayer cultures; for kin: rate of transfer from the extracellular to the intracellular compartment / kout: rate of transfer from the intracellular to the extracellular compartment: Table S3, cellular PK model, monolayer ABM fit; for kmet: rate of metabolism to the next metabolite: Table S3, anoxic, CP-506 to CP-506H, CP-506H to CP-506M, CP-506M to CP-506M-Cl2; for Activator k met0: rate constant for the maximum rate of metabolism in POR-R cells under anoxia / kmet: rate of metabolism to the next metabolite: POR-R cells. The protocol: as §1, §2

Data set [3] concerns POR-R cell line (POR-overexpressing HCT-116). The data set is described as follows: Monolayer clonogenic assay (with monolayer ABM fit). The data set is classed as cell-based, human. The conditions noted are these: for k d M: kill probability rate constant in monolayer cultures: fitted by monolayer ABM to clonogenic survival under anoxia, set to zero for the prodrug, same kd assumed for metabolites. The protocol: (§3) Cells (4.8 x 10^5 cells) were seeded with 2 ml culture medium into 6-well plates and left to attach for 2 h in a humidified 37°C incubator. Compounds were then prepared in culture medium and added in a 500 µl volume to each well. Plates were returned to a humidified 37°C incubator for the duration of the drug exposure (4 h). Aerobic and anoxic experiments were performed as described above. Plates were then removed from the anaerobic chamber and processed alongside the aerobic cultures. Cells were detached from monolayer by trypsinisation and plated at serial dilutions in 6-well plates. Cells were left to grow in a standard 37°C incubator for 10 days until the controls formed discrete colonies comprised of at least 50 cells. Colonies were visualized by staining with methylene blue (2 g/L in 50% aqueous ethanol) for 30 min. The number of colonies with at least 50 cells was manually counted to determine the plating efficiency. The surviving fraction was determined as the ratio of plating efficiency of treated cells to that of the controls.
as §2
(§4) The spheroid ABM is described in further detail elsewhere ([Hong et al., 2018b]; [Mao et al., 2018]). The model employs two 3D grids and two solvers, a coarse grid represents the culture medium and is embedded with a much finer grid that represents the spheroid in a small cubic region at the bottom of the well. The spheroid grows in a specified volume and depth of unstirred medium containing dissolved oxygen. The geometry of the model is lattice-based, in which cells occupy cubic sites on a regular 3D lattice and grow in volume at a rate dependent on the local oxygen concentration. Autonomous cell mobility and cell-cell forces are not simulated. Cell motion occurs only as a result of cell division. Cells divide when the volume reaches a pre-set value (Vdiv) and the resultant daughter cell occupies an adjacent empty lattice site. […] The oxygen concentration at the air-medium boundary is defined by the gas phase of the culture environment. […]

In data set [4] the test system is PORko-G cell line (POR-knockout HCT-116). Described as above. The data set is classed as cell-based, human. The protocol: as §3, §2, §4
[5] abbreviates: anoxia, estimated from clonogenic survival by ABM.

“And” between values parts separate entries of the source, which are not always exact repeats. Equal values may be shown once.

As for `CCN1CCN(C(=O)c2cc(N(CCBr)CCOS(C)(=O)=O)c(S(C)(=O)=O)cc2[N+](=O)[O-])CC1` [CP-506, 2-[(2-bromoethyl)-5-[(4-ethyl-1-piperazinyl)carbonyl]-2-(methylsulfonyl)-4-nitroanilino]ethyl methanesulfonate], in data set [1], the half-life at 100 µM was 1200 min. Moreover, in data set [2], the “Activator k met0: rate constant for the maximum rate of metabolism in POR-R cells under anoxia” value (“Activator k met0: rate constant” below) came to 0.12 min⁻¹, the “k in: rate constant for transfer from the extracellular to intracellular volume” value (“k in: rate constant for transfer” for short) is 3.7 min⁻¹, the “k out: rate constant for transfer from the intracellular to extracellular volume” value (shortened to “k out: rate constant for transfer”) was 0.06 min⁻¹ and the “kin: rate of transfer from the extracellular to the intracellular compartment” value (“kin: rate of transfer” for short) was 3.7 min⁻¹. For the same compound, in data set [2], the “kout: rate of transfer from the intracellular to the extracellular compartment” value (from here on “kout: rate of transfer”) is 0.06 min⁻¹ and the “kmet: rate of metabolism to the next metabolite” value (shortened to “kmet: rate of metabolism”) came out at 0.12 min⁻¹. The “Steady-state Ci/Ce ratio (cell uptake)” value in data set [2] (anoxic <1 ppm O2, POR-R monolayer) turned out to be 40 fold. The IC50 in data set [3] (Homo sapiens, HCT-116, POR-R monolayer, 4 h exposure, <1 ppm O2, read-out: Clonogenic IC50 under anoxia) was determined as 0.8 ± 0.3 µM. For the same compound, in data set [3], the “k d M: kill probability rate constant in monolayer cultures” value (“k d M: kill probability rate constant” below) amounted to 0. Also, in data set [4] (Homo sapiens, HCT-116, PORko-G monolayer, 4 h exposure, <1 ppm O2, read-out: Clonogenic IC50 under anoxia), the concentration for half-maximal inhibition (IC50) was determined as 17.1 ± 3.4 µM. Further, the “Target k met0: rate constant for the maximum rate of metabolism in PORko-G cells under anoxia” value (from here on “Target k met0: rate constant”) in data set [4] (setting [5]) was 0.0019 min⁻¹. For the same compound, in data set [4] (monolayer clonogenic endpoint, anoxia), the “Differential in anoxic sensitivity between PORko-G and POR-R cell lines” value was 22 fold and 20 fold.
Consider `CCN1CCN(C(=O)c2cc(N(CCBr)CCOS(C)(=O)=O)c(S(C)(=O)=O)cc2NO)CC1` [CP-506H, 2-((2-bromoethyl)(5-(4-ethylpiperazine-1-carbonyl)-4-(hydroxyamino)-2-(methylsulfonyl)phenyl)amino)ethyl methanesulfonate], for which the half-life at 100 µM in data set [1] was 12.6 min. In data set [2], the “Activator k met0: rate constant” value turned out to be 0.09 min⁻¹, the “k in: rate constant for transfer” value is 0.9 min⁻¹, the “k out: rate constant for transfer” value was 0.25 min⁻¹ and the “kin: rate of transfer” value was 0.9 min⁻¹. Besides, in data set [2], the “kout: rate of transfer” value worked out at 0.25 min⁻¹ and the “kmet: rate of metabolism” value came to 0.09 min⁻¹. Also, the “k d M: kill probability rate constant” value in data set [3] is 0.01. The “Target k met0: rate constant” value in data set [4] (setting [5]) is 0.09 min⁻¹.
Consider `CCN1CCN(C(=O)c2cc(N(CCBr)CCOS(C)(=O)=O)c(S(C)(=O)=O)cc2N)CC1` [CP-506M, 2-((4-amino-5-(4-ethylpiperazine-1-carbonyl)-2-(methylsulfonyl)phenyl)(2-bromoethyl)amino)ethyl methanesulfonate], for which the half-life at 100 µM in data set [1] is 6.6 min. In data set [2], the “Activator k met0: rate constant” value is 0.1 min⁻¹, the “k in: rate constant for transfer” value was 0.9 min⁻¹, the “k out: rate constant for transfer” value was 0.4 min⁻¹ and the “kin: rate of transfer” value was 0.9 min⁻¹. In addition, in data set [2], the “kout: rate of transfer” value turned out to be 0.4 min⁻¹ and the “kmet: rate of metabolism” value was found to be 0.1 min⁻¹. In data set [3], the “k d M: kill probability rate constant” value stood at 0.01. Also, in data set [4] (setting [5]), the “Target k met0: rate constant” value was 0.1 min⁻¹.
With `CCN1CCN(C(=O)c2cc(N(CCCl)CCCl)c(S(C)(=O)=O)cc2N)CC1` [CP-506M-Cl2, (2-Amino-5-(bis(2-chloroethyl)amino)-4-(methylsulfonyl)phenyl)(4-ethylpiperazin-1-yl)methanone], the “Activator k met0: rate constant” value in data set [2] (footnote d: assumed equivalent to the measured metabolites or from published PR-104A estimates) is given as 0.1 ^d min^−1. Moreover, in data set [3], the “k d M: kill probability rate constant” value came out at 0.01. The “Target k met0: rate constant” value in data set [4] (anoxia, footnote d: assumed equivalent to the measured metabolites or from published PR-104A estimates) is recorded as 0.1 ^d min^−1.

By IC50 is commonly meant the concentration that inhibits the measured activity by half.
